Legend:
[1] = system: MCF7; assay: Soft agar growth assay (colony area); type: cell-based, human; design: key to Cells designated sensitive (S) or resistant (R) to lonafarnib: sensitive (S); resistant (R); settings: MCF7, breast
Description: (§1) Cells were grown in soft agar and the IC50 for lonafarnib was determined. Cells were designated sensitive (S) or resistant (R). The IC50 value was determined by comparing colony areas of the cell lines exposed to the various doses of FTI. IC50 values were calculated with the XLfit program (idbs; Guildford, United Kingdom).
(§2) Growth assays. Soft agar assays were performed in 6-well dishes by seeding 10,000-20,000 cells in each well. Cells were plated in top 0.35% low melting point agarose in DMEM:F12 with 10% fetal bovine serum over a bottom 0.6% agarose feeding layer. Cells were grown in the presence of lonafarnib for 14 days and colonies were stained with 1 mg/ml MIT (dimethylthiazol-diphenyl-terrazolium bromide) in PBS. The plates were scanned and the colony area was determined as the sum of the areas stained by MTT.

[2] = system: A2780; assay: Soft agar growth assay (colony area); type: cell-based; design: key to Cells designated sensitive (S) or resistant (R) to lonafarnib: sensitive (S); resistant (R); settings: A2780, ovarian
Description: as §1, §2

[3] = system: AsPc1; assay: Soft agar growth assay (colony area); type: cell-based; design: key to Cells designated sensitive (S) or resistant (R) to lonafarnib: sensitive (S); resistant (R); settings: AsPc1, pancreas
Description: as §1, §2

[4] = system: Colo205; assay: Soft agar growth assay (colony area); type: cell-based; design: key to Cells designated sensitive (S) or resistant (R) to lonafarnib: sensitive (S); resistant (R); settings: Colo205, colon
Description: as §1, §2

[5] = system: DLD-1; assay: Soft agar growth assay (colony area); type: cell-based; design: key to Cells designated sensitive (S) or resistant (R) to lonafarnib: sensitive (S); resistant (R); settings: DLD-1, colon
Description: as §1, §2

[6] = system: DU145; assay: Soft agar growth assay (colony area); type: cell-based; design: key to Cells designated sensitive (S) or resistant (R) to lonafarnib: sensitive (S); resistant (R); settings: DU145, prostate
Description: as §1, §2

[7] = system: HT29; assay: Soft agar growth assay (colony area); type: cell-based; design: key to Cells designated sensitive (S) or resistant (R) to lonafarnib: sensitive (S); resistant (R); settings: HT29, colon
Description: as §1, §2

[8] = system: LNCap; assay: Soft agar growth assay (colony area); type: cell-based; design: key to Cells designated sensitive (S) or resistant (R) to lonafarnib: sensitive (S); resistant (R); settings: prostate
Description: as §1, §2

[9] = system: MDA435; assay: Soft agar growth assay (colony area); type: cell-based; design: key to Cells designated sensitive (S) or resistant (R) to lonafarnib: sensitive (S); resistant (R); settings: MDA435, breast
Description: as §1, §2

[10] = system: MiaPaca; assay: Soft agar growth assay (colony area); type: cell-based; design: key to Cells designated sensitive (S) or resistant (R) to lonafarnib: sensitive (S); resistant (R); settings: pancreas
Description: as §1, §2

[11] = system: Panc1; assay: Soft agar growth assay (colony area); type: cell-based; design: key to Cells designated sensitive (S) or resistant (R) to lonafarnib: sensitive (S); resistant (R); settings: Panc1, pancreas
Description: as §1, §2

[12] = system: SKOV3; assay: Soft agar growth assay (colony area); type: cell-based; design: key to Cells designated sensitive (S) or resistant (R) to lonafarnib: sensitive (S); resistant (R); settings: SKOV3, ovarian
Description: as §1, §2

[13] = system: SNB19; assay: Soft agar growth assay (colony area); type: cell-based; design: key to Cells designated sensitive (S) or resistant (R) to lonafarnib: sensitive (S); resistant (R); settings: SNB19, glioma
Description: as §1, §2

[14] = system: SNB75; assay: Soft agar growth assay (colony area); type: cell-based; design: key to Cells designated sensitive (S) or resistant (R) to lonafarnib: sensitive (S); resistant (R); settings: SNB75, glioma
Description: as §1, §2

[15] = system: T47D; assay: Soft agar growth assay (colony area); type: cell-based; design: key to Cells designated sensitive (S) or resistant (R) to lonafarnib: sensitive (S); resistant (R); settings: breast
Description: as §1, §2

[16] = system: TOV112D; assay: Soft agar growth assay (colony area); type: cell-based; design: key to Cells designated sensitive (S) or resistant (R) to lonafarnib: sensitive (S); resistant (R); settings: ovarian
Description: as §1, §2

[17] = system: MCF-7; assay: Western blot of phospho-histone H2Ax induction; type: cell-based, human; settings: 72 hours, 1000 nM FTI vs DMSO, undetectable basal level
Description: (§3) The induction of phospho-histone H2Ax was analyzed by comparing the cellular expression levels of the phosphoprotein following exposure of cells to both DMSO (blank) and lonafarnib. The levels were evaluated by western blot. The quantity of induced phosphoprotein was determined qualitatively and by using densitometric analysis of bands on the blot.
(§4) Western blot protein analysis. Cells were lysed in RIPA buffer (50 mM Tris-HCl, 50 mM NaCl, 1% NP40, 0.5% Na-deoxycholate, 1 mM EDTA, 2.5 mM Na3VO4, 20 mM beta-glycerol phosphate, and complete protease inhibitor) and cleared by centrifugation. Protein concentration was determined using BCA reagent. Samples were separated by 14% SDS-PAGE, transferred to polyvinylidene difluoride (PVDF) membrane, immunoblotted and detected by chemiluminescence using the ECL detection reagents. Polyclonal antibodies used: Histone H2Ax and phos-Histone H2Ax (ser-139) (Cell Signaling Technology, Inc.; Danvers, Mass.). Densitometry was analyzed utilizing Quantity One software (Bio-Rad; Hercules, Calif.). Cells that were analyzed for inducation of phospho-H2Ax by western blot analysis were initially plated on plastic and then treated for 72 hours with 1000 nM of the FTI.

[18] = system: A2780; assay: Western blot of phospho-histone H2Ax induction; type: cell-based; settings: 72 hours, 1000 nM FTI vs DMSO, undetectable basal level
Description: as §3, §4

[19] = system: AsPc1; assay: Western blot of phospho-histone H2Ax induction; type: cell-based; settings: 72 hours, 1000 nM FTI vs DMSO, densitometry
Description: as §3, §4

[20] = system: Colo205; assay: Western blot of phospho-histone H2Ax induction; type: cell-based; settings: 72 hours, 1000 nM FTI vs DMSO
Description: as §3, §4

[21] = system: DLD-1; assay: Western blot of phospho-histone H2Ax induction; type: cell-based; settings: 72 hours, 1000 nM FTI vs DMSO, densitometry
Description: as §3, §4

[22] = system: DU145; assay: Western blot of phospho-histone H2Ax induction; type: cell-based; settings: 72 hours, 1000 nM FTI vs DMSO, densitometry
Description: as §3, §4

[23] = system: HT29; assay: Western blot of phospho-histone H2Ax induction; type: cell-based; settings: 72 hours, 1000 nM FTI vs DMSO, densitometry
Description: as §3, §4

[24] = system: LNCap; assay: Western blot of phospho-histone H2Ax induction; type: cell-based; settings: 72 hours, 1000 nM FTI vs DMSO, densitometry
Description: as §3, §4

[25] = system: MDA-435; assay: Western blot of phospho-histone H2Ax induction; type: cell-based; settings: 72 hours, 1000 nM FTI vs DMSO, densitometry
Description: as §3, §4

[26] = system: MiaPaca; assay: Western blot of phospho-histone H2Ax induction; type: cell-based; settings: 72 hours, 1000 nM FTI vs DMSO, densitometry
Description: as §3, §4

[27] = system: Panc1; assay: Western blot of phospho-histone H2Ax induction; type: cell-based; settings: 72 hours, 1000 nM FTI vs DMSO
Description: as §3, §4

[28] = system: SKOV3; assay: Western blot of phospho-histone H2Ax induction; type: cell-based; settings: 72 hours, 1000 nM FTI vs DMSO, densitometry
Description: as §3, §4

[29] = system: SNB19; assay: Western blot of phospho-histone H2Ax induction; type: cell-based; settings: 72 hours, 1000 nM FTI vs DMSO, undetectable basal level
Description: as §3, §4

[30] = system: SNB75; assay: Western blot of phospho-histone H2Ax induction; type: cell-based; settings: 72 hours, 1000 nM FTI vs DMSO, densitometry
Description: as §3, §4

[31] = system: T47D; assay: Western blot of phospho-histone H2Ax induction; type: cell-based; settings: 72 hours, 1000 nM FTI vs DMSO, densitometry
Description: as §3, §4

[32] = system: TOV112D; assay: Western blot of phospho-histone H2Ax induction; type: cell-based; settings: 72 hours, 1000 nM FTI vs DMSO, undetectable basal level
Description: as §3, §4

[33] = system: sensitive cell lines; assay: Western blot of phospho-histone H2Ax induction; type: cell-based; settings: 72 hours, 1000 nM
Description: as §3, §4

[34] = Homo sapiens, 336 h, 14 days, read-out: Lonafarnib IC50

Question: Which IC50 [1, 34] does the source give for `NC(=O)N1CCC(CC(=O)N2CCC([C@H]3c4ncc(Br)cc4CCc4cc(Cl)cc(Br)c43)CC2)CC1` [Lonafarnib, lonafarnib] here?
Answer: 10 nM

Question: And the “Cells designated sensitive (S) or resistant (R) to lonafarnib” value (from here on “Cells designated sensitive”) [1]?
Answer: (S)

Question: And the “Cells designated sensitive” value [2]?
Answer: (S)

Question: And the IC50 [2, 34]?
Answer: 80 nM

Question: What about the “Cells designated sensitive” value [3] of the same compound?
Answer: (R)

Question: And the IC50 [3, 34]?
Answer: 1000 nM

Question: What about the “Cells designated sensitive” value [4] of the same compound?
Answer: (S)

Question: And the IC50 ([4]; Homo sapiens, COLO 205, 336 h, 14 days, read-out: Lonafarnib IC50)?
Answer: 330 nM

Question: And the “Cells designated sensitive” value [5]?
Answer: (S)

Question: And the IC50 [5, 34]?
Answer: 320 nM

Question: What about the “Cells designated sensitive” value [6] of the same compound?
Answer: (R)

Question: What about the IC50 ([6]; Homo sapiens, DU-145, 336 h, 14 days, read-out: Lonafarnib IC50) of the same compound?
Answer: 1600 nM

Question: And the “Cells designated sensitive” value [7]?
Answer: (R)

Question: And the IC50 ([7]; Homo sapiens, HT-29, 336 h, 14 days, read-out: Lonafarnib IC50)?
Answer: 940 nM

Question: What about the IC50 [8, 34] of the same compound?
Answer: 10 nM

Question: What about the “Cells designated sensitive” value [8] of the same compound?
Answer: (S)

Question: What about the IC50 ([9]; 336 h, 14 days, read-out: Lonafarnib IC50) of the same compound?
Answer: 350 nM

Question: What about the “Cells designated sensitive” value [9] of the same compound?
Answer: (S)

Question: And the IC50 ([10]; Homo sapiens, MIA PaCa-2, 336 h, 14 days, read-out: Lonafarnib IC50)?
Answer: 240 nM

Question: And the “Cells designated sensitive” value [10]?
Answer: (S)

Question: What about the IC50 ([11]; Homo sapiens, PANC-1, 336 h, 14 days, read-out: Lonafarnib IC50) of the same compound?
Answer: 440 nM

Question: What about the “Cells designated sensitive” value [11] of the same compound?
Answer: (S)

Question: What about the IC50 ([12]; Homo sapiens, SK-OV-3, 336 h, 14 days, read-out: Lonafarnib IC50) of the same compound?
Answer: 2000 nM

Question: And the “Cells designated sensitive” value [12]?
Answer: (R)

Question: And the IC50 ([13]; Homo sapiens, SNB-19, 336 h, 14 days, read-out: Lonafarnib IC50)?
Answer: 230 nM

Question: And the “Cells designated sensitive” value [13]?
Answer: (S)

Question: And the IC50 ([14]; Homo sapiens, SNB-75, 336 h, 14 days, read-out: Lonafarnib IC50)?
Answer: > 3000 nM

Question: What about the “Cells designated sensitive” value [14] of the same compound?
Answer: (R)

Question: And the IC50 [15, 34]?
Answer: 1800 nM

Question: And the “Cells designated sensitive” value [15]?
Answer: (R)

Question: What about the IC50 [16, 34] of the same compound?
Answer: 100 nM

Question: What about the “Cells designated sensitive” value [16] of the same compound?
Answer: (S)

Question: What about the “phospho-histone H2Ax expression upon treatment” value [17] of the same compound?
Answer: induced to detectable levels

Question: What about the “phospho-histone H2Ax expression upon treatment” value [18] of the same compound?
Answer: induced to detectable levels

Question: What about the “induction of phospho-histone H2Ax (difference in OD values)” value (“induction … (difference in OD values)” for short) [19] of the same compound?
Answer: 1 fold

Question: What about the “induction of phos-histone H2Ax upon treatment” value [20] of the same compound?
Answer: no detectable induction

Question: And the “induction of phospho-histone H2Ax” value [21]?
Answer: 4.3 fold

Question: And the “induction … (difference in OD values)” value [22]?
Answer: 1 fold

Question: And the “induction … (difference in OD values)” value [23]?
Answer: 1 fold

Question: What about the “induction of phospho-histone H2Ax” value [24] of the same compound?
Answer: 2.2 fold

Question: And the “induction of phospho-histone H2Ax” value [25]?
Answer: 6.5 fold

Question: What about the “induction of phospho-histone H2Ax” value [26] of the same compound?
Answer: 2.3 fold

Question: And the “induction of phos-histone H2Ax upon treatment” value [27]?
Answer: no detectable induction

Question: What about the “induction … (difference in OD values)” value [28] of the same compound?
Answer: 1 fold

Question: What about the “phospho-histone H2Ax expression upon treatment” value [29] of the same compound?
Answer: induced to detectable levels

Question: What about the “induction … (difference in OD values)” value [30] of the same compound?
Answer: 1 fold

Question: And the “induction … (difference in OD values)” value [31]?
Answer: 1 fold

Question: What about the “phospho-histone H2Ax expression upon treatment” value [32] of the same compound?
Answer: induced to detectable levels

Question: `NC(=O)N1CCC(CC(=O)N2CCC(C3c4ncc(Br)cc4CCc4cc(Cl)cc(Br)c43)CC2)CC1` (single isomer, unassigned) [inactive enantiomer of lonafarnib] was tested. Which “phosphorylation of histone-H2Ax upon treatment” value [33] did it give?
Answer: does not induce
